Target: human somatostatin receptor subtype 5 (Homo sapiens, UniProt P35346)
Experiment: cAMP assay for SST5R (inhibition of cAMP via human SST5 receptor)

Sequence of human somatostatin receptor subtype 5 (P35346 whole entry): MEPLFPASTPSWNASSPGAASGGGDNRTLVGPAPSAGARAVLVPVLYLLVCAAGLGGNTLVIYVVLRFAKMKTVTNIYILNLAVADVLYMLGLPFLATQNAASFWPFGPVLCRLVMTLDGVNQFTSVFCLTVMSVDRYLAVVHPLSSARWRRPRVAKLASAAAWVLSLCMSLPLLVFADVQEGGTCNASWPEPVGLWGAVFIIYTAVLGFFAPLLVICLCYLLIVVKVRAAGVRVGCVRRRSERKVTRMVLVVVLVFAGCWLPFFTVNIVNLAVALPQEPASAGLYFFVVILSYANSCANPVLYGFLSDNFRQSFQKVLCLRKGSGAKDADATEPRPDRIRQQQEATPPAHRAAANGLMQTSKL

| SMILES | EC50 |
| --- | --- |
| Cc1cc(-c2cncc(-c3nc4cc(F)cc(F)c4[nH]3)c2N2CC(CN)C2)ccc1F [Compound 1-47, 1-{1-[3-(4,6-difluoro-1H-1,3-benzodiazol-2-yl)-5-(4-fluoro-3-methylphenyl)pyridin-4-yl]azetidin-3-yl}methanamine] | < 10 nM |
| NCC1(F)CN(c2c(-c3cc(F)cc(Cl)c3)cncc2-c2nc3cc(F)cc(F)c3[nH]2)C1 [Compound 1-62, 1-{1-[3-(3-chloro-5-fluorophenyl)-5-(4,6-difluoro-1H-1,3-benzodiazol-2-yl)pyridin-4-yl]-3-fluoroazetidin-3-yl}methanamine] | < 10 nM |
| Cc1cc(F)cc(-c2cncc(-c3ncc[nH]3)c2N2CC(CN)C2)c1 [Compound 1-56, 1-{1-[3-(3-fluoro-5-methylphenyl)-5-(1H-imidazol-2-yl)pyridin-4-yl]azetidin-3-yl}methanamine] | > 1000 nM |
| Cc1cccc(-c2cncc(-c3nc4cc(F)cc(F)c4[nH]3)c2N2CC(CN)C2)c1F [Compound 1-67, 1-{1-[3-(4,6-difluoro-1H-1,3-benzodiazol-2-yl)-5-(2-fluoro-3-methylphenyl)pyridin-4-yl]azetidin-3-yl}methanamine] | 100 to 1000 nM |

Further lines, results first:

| EC50 | SMILES |
| --- | --- |
| 10 to 100 nM | N#Cc1cccc(-c2cncc(-c3nc4cccc(F)c4[nH]3)c2N2C[C@@H](N)[C@@H](O)C2)c1 (racemic) [Compound 2-68, 3-{4-[cis-3-amino-4-hydroxypyrrolidin-1-yl]-5-(4-fluoro-1H-1,3-benzodiazol-2-yl)pyridin-3-yl}benzonitrile] |
| 100 to 1000 nM | CS(=O)(=O)c1cccc(-c2cncc(-c3nc4cc(F)cc(F)c4[nH]3)c2N2CC[C@H](N)C2)c1 [Compound 2-93, (3S)-1-[3-(4,6-difluoro-1H-1,3-benzodiazol-2-yl)-5-(3-methanesulfonylphenyl)pyridin-4-yl]pyrrolidin-3-amine] |
| 10 to 100 nM | NC(=O)c1cc(-c2cncc(-c3nc4c(F)ccc(F)c4[nH]3)c2N2CC[C@H](N)C2)ccc1F [Compound 2-61, 5-{4-[(3S)-3-aminopyrrolidin-1-yl]-5-(4,7-difluoro-1H-1,3-benzodiazol-2-yl)pyridin-3-yl}-2-fluorobenzamide] |
| < 10 nM | C#Cc1cccc2[nH]c(-c3cncc(-c4cccc(C#N)c4)c3N3CC[C@H](N)C3)nc12 [Compound 2-84, 3-{4-[(3S)-3-Aminopyrrolidin-1-yl]-5-(4-ethynyl-1H-1,3-benzodiazol-2-yl)pyridin-3-yl}benzonitrile] |
| 100 to 1000 nM | COCCn1c(-c2cncc(-c3cc(F)cc(C#N)c3)c2N2CC[C@H](N)C2)nc2ccccc21 [Compound 2-112, 3-{4-[(3S)-3-aminopyrrolidin-1-yl]-5-[1-(2-methoxyethyl)-1H-1,3-benzodiazol-2-yl]pyridin-3-yl}-5-fluorobenzonitrile] |
| < 10 nM | N#Cc1cc(F)cc(-c2cncc(-c3nc4cc(F)cc(F)c4[nH]3)c2N2CC[C@H](N)C2)c1 [Compound 2-87, 3-{4-[(3S)-3-aminopyrrolidin-1-yl]-5-(4,6-difluoro-1H-1,3-benzodiazol-2-yl)pyridin-3-yl}-5-fluorobenzonitrile] |
| < 10 nM | Cn1c(-c2cncc(-c3cccc(C#N)c3)c2N2CC[C@H](N)C2)nc2c(F)cccc21 [Compound 2-74, 3-{4-[(3S)-3-aminopyrrolidin-1-yl]-5-(4-fluoro-1-methyl-1H-1,3-benzodiazol-2-yl)pyridin-3-yl}benzonitrile] |
| 100 to 1000 nM | N#Cc1cccc(-c2cncc(-c3nc4c(CO)cccc4[nH]3)c2N2CC[C@H](N)C2)c1 [Compound 2-91, 3-{4-[(3S)-3-aminopyrrolidin-1-yl]-5-[7-(hydroxymethyl)-1H-1,3-benzodiazol-2-yl]pyridin-3-yl}benzonitrile] |
| 10 to 100 nM | N[C@H]1CCN(c2c(-c3cc(F)cc(Cl)c3)cncc2-c2nc3ccc(Cl)cc3[nH]2)C1 [Compound 2-95, (3S)-1-[3-(5-chloro-1H-1,3-benzodiazol-2-yl)-5-(3-chloro-5-fluorophenyl)pyridin-4-yl]pyrrolidin-3-amine] |
